How the values were obtained:
Assay type in all cases: in vivo, Wistar rats
diabetic rats [1] = assay: Nociceptive threshold (NCT) pain test, reversion of established diabetic neuropathy (Example 2); settings: 100 μg EGF in 1 ml i.p. 3 days a week for one month, day 120 after induction of diabetes
Experimental: The pain test, by application of an increasing pressure in the tail, was carried out at days 28 and 56 after initiation of the treatment, using 10 animals per each one of the experimental groups. NCT, expressed in grams, was determined by using an Ugo Basile type analgesimeter to apply a gradually increasing pressure to the tail of the animals until they developed a withdrawal reflex. In human diabetic neuropathy the nociceptive threshold is reduced.
(§1) The aim of this study was to evaluate the neurorestoration effect of the pharmaceutical composition. Male Wistar rats between 200-250 grams of body is weight received a subcutaneous injection of streptozotocin at 75 mg/kg in sodium citrate buffer, and were allowed to evolve until 120 days after disease induction. All rats used in this experiment had shown sustained glucose levels above 15 mmol/L. Animals were handled and fed as previously described. A concurrent control group was set, where animals received saline instead of streptozotocin. […] After this period an electrophysiological characterization of all rats were done and animals were split in two random treatment groups:
Group II. Animals received the pharmaceutical composition with 100 μg of EGF in 1 ml, 3 days a week, by intraperitoneal route. […]

diabetic rats [2] = assay: Conduction velocity of motor fibers, reversion study (Example 2); settings: established diabetic neuropathy, 100 μg EGF in 1 ml i.p. 3 days a week for one month, day 120 after induction of diabetes
Experimental: (§2) Distal supra-maximal stimulation in the sciatic-tibial route using bipolar electrodes is was used to study motor conduction. Determination of the conduction velocity in the sensory routes was carried out by applying a stimulus at a proximal point in the tail and measure it 3 cm away.
as §1
(§3) Group II. Animals received the pharmaceutical composition with 100 μg of EGF in 1 ml, 3 days a week, by intraperitoneal route.
(§4) To check the effect of the pharmaceutical composition on the restoration of sensory and motor fibers the conduction velocity of an electric impulse was measured at day 120 after induction of diabetes, after treating the animals with the pharmaceutical composition or saline. […]

right sciatic nerve = assay: Laser Doppler Perfusion Imaging of blood perfusion of a peripheral nerve, prevention study (Example 1); settings: diabetic rats, 75 μg EGF/ml, two months
Experimental: (§5) Male Wistar, with 200-250 grams of body weight, received a subcutaneous injection of streptozotocin, at 75 mg/kg in sodium citrate buffer. Water was then replaced by a 10% sucrose solution during the next 24 h, to prevent deaths caused by hypoglycemia. Glucose levels in blood were monitored every morning during the next 72 hours after the injection. Only animals with sustained glucose values above 15 mmol/L were used. Rats were housing at 4 per cage and fed in the conventional way. A concurrent group of other 80 rats received citrate buffer without streptozotocin and was handled in a similar fashion to the diabetic group. The average value for glycemia during the 72 hours in this group was 5.87 mmol/L.
(§6) All treatments were conducted during 8 weeks, starting one week after streptozotocin injection. The composition used contained 75 μg of human recombinant EGF/ml. Several types of observations were conducted in the animals under study:
The right sciatic nerve of rats was used as a model. Ten animals were included for each one of the experimental groups. A similar number of non diabetic rats were used to calculate the reference values. A Laser Doppler Perfusion Imaging (LDPI) system was used. Data of perfusion in peripheral tissues to the nerve were programmed as zero values. Control animals received saline during two months before the measurement. […]

diabetic rats [3] = assay: Sensory conduction velocity in the tail, prevention study (Example 1); settings: 75 μg EGF/ml, day 60
Experimental: as §5, §6
Fifteen animals were used in each experimental group. In diabetic neuropathy conduction velocity is generally diminished.
as §2

diabetic rats [4] = assay: Sensory conduction velocity, reversion study (Example 2); settings: established diabetic neuropathy, 100 μg EGF in 1 ml i.p. 3 days a week for one month, day 120 after induction of diabetes
Experimental: as §2, §1, §3, §4

[5] = test system: Redox state in fragments from the sciatic nerve; assay: Redox profile in fragments from the sciatic nerve, prevention study (Example 1)
Experimental: as §5, §6
Once the treatment was concluded, animals were sacrificed at day 70 after induction of diabetes, 10 days after the last dose was given, and the analysis described above is was completed. Animals were sacrificed by an overdose of anesthesia and perfused with saline buffer pH 7.4. A total of ten animals per experimental group were included for histomorphometric studies, and an equivalent number of rats were used for biochemical determinations. In both systems the sciatic nerves from both limbs were dissected; fragments were kept at −70° C. until processed. The samples taken for histological and/or histomorphometric studies were stained with hematoxilin/eosin and toluidine blue. At least five fragments of the same nerve were quantitatively studied using MADIP program. The fragments were included in blocks of celloidine and gelatin, and those blocks were horizontal and transversally sliced. The following histological indicators were evaluated: • Total number of blood vessels (in epineural/perineural) in 10 microscopic fields using 10× as constant magnification in longitudinal cuts of the nerve. • Percentage of demyelinated fibers. Evaluated by averaging the values per microscopic field (×20, at least five fields). • Percentage of myelin or non-myelin fibers with lesions (dilated or distorted) per microscopic field (×20, at least five fields). • Percentage of endoneurial collagenization (moderated: 25 to 50%; severe: more than 50% of the endoneurial area in transversal slices, and at least three different sections.
Ten animals per experimental group were used to conduct biochemical determinations in the fragments of sciatic nerve collected. The biochemical parameters studied were the following:
Redox Profile: • Activity of total Superoxide Dismutase enzyme (tSOD). • Activity of catalase enzyme. • Intra-axonal accumulation of total hydroperoxides (HPT). • Intra-axonal accumulation of malonyldialdehyde (MDA).

[6] = 1 ml i.p. once weekly (Treatment group 1)
[7] = 1 ml i.p. three times a week (Treatment group 3)
[8] = Treatment group 1 (once weekly i.p., 8 weeks)
[9] = Treatment group 3 (three times a week i.p., 8 weeks)

Substance: EGF containing pharmaceutical composition: Composition with human recombinant EGF: 75 μg/ml in Example 1, 100 μg in 1 ml in Example 2, given intraperitoneally
- UNC (NCT test) (diabetic rats [1]): 80 ± 5 grams
- Velocity (conduction velocity of motor fibers) (diabetic rats [2]): 54.8 ± 1.66 m/s
- Laser Doppler perfusion of the sciatic nerve (right sciatic nerve; [6]): 653.4 ± 41.9 LDPI Units
- Laser Doppler perfusion of the sciatic nerve (right sciatic nerve; [7]): 988.7 ± 80.3 LDPI Units
- SCV (sensitive conduction velocity) (diabetic rats [3]; [6]): 38 ± 6 m/s
- SCV (sensitive conduction velocity) (diabetic rats [3]; [7]): 44 ± 9 m/s
- Velocity (sensitive conduction velocity, SCV) (diabetic rats [4]): 59.42 ± 3.35 m/s
- Catalase activity [5, 8]: 274.60 ± 52.3 units per milligram, of protein per minute
- HPT (total hydroperoxides) [5, 8]: 143.05 ± 1.98 nmol/mg of protein
- MDA (malonyldialdehyde) [5, 8]: 0.24 ± 0.04 nmol/mg of protein
- tSOD (total Superoxide Dismutase activity) [5, 8]: 958.17 ± 244.61 units per milligram, of protein per minute
- Catalase activity [5, 9]: 37.62 ± 8.13 units per milligram, of protein per minute
- HPT (total hydroperoxides) [5, 9]: 25.15 ± 1.81 nmol/mg of protein
- MDA (malonyldialdehyde) [5, 9]: 0.08 ± 0.02 nmol/mg of protein
- tSOD (total Superoxide Dismutase activity) [5, 9]: 2102.83 ± 112.67 units per milligram, of protein per minute

Source: US9034826B2, “Use of epidermal growth factor for the morphofunctional restoration of peripheral nerves in diabetic neuropathy” (Centro de Ingenieria Genetica y Biotecnologia, priority 2006, dated 2015)
